The text below walks through data of paper PMC3872530 (Molecular microbiology, 2013).

Structures are written as SMILES.

Common to all, as to test: whole-cell EPR of [2Fe-2S] cluster
What all share (assay type): cell-based

One assay concerns the target PaSoxR (Pseudomonas aeruginosa, UniProt Q51506). Particulars: oxidant, 40 min, E. coli XA90, EPR at 15 K.
A further assay deals with T1, EcSoxR (Escherichia coli, UniProt P0ACS2).
T1 sequence (P0ACS2 1-154): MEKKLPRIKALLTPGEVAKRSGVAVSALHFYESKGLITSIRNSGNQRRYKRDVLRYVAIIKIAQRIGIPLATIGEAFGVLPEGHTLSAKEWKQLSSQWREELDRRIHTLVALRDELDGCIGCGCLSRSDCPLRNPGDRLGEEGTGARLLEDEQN
Particulars: oxidant, 40 min, E. coli XA90, EPR at 15 K.

A further assay addresses T2, ScSoxR (Streptomyces coelicolor, UniProt Q9S255).
T2 sequence (Q9S255 1-175): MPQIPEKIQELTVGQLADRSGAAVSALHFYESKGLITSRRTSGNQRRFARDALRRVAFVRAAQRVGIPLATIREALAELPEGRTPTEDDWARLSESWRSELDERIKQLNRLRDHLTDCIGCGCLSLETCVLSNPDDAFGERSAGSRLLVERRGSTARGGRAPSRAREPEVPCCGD
Particulars: oxidant; 50 uM, 40 min, E. coli XA90, EPR at 15 K.

Sequence of PaSoxR (Q51506 whole entry): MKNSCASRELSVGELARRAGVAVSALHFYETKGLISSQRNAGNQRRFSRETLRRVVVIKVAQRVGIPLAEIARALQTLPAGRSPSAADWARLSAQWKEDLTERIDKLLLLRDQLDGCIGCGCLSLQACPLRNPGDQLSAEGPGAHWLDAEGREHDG

As to `C[n+]1c2ccccc2nc2ccccc21` [PMS, phenazine methosulfate], the “whole-cell EPR of [2Fe-2S] cluster” value on PaSoxR (50 uM) was “PMS always silenced the spectral peaks”; on EcSoxR (50 uM), “The spectra disappeared upon treatment with PQ and PMS”; at ScSoxR, “The cluster was oxidized to its EPR-silent state when the cells were treated with PMS”.

For `C[n+]1ccc(-c2cc[n+](C)cc2)cc1` [PQ, paraquat], the “whole-cell EPR of [2Fe-2S] cluster” value was “PQ was partially effective in oxidizing the [2Fe-2S] cluster” at PaSoxR (100 uM, partial effect); “The spectra disappeared upon treatment with PQ and PMS” on EcSoxR (100 uM).
